# According to patent US20230049952A1, “METHODS AND COMPOUNDS FOR RESTORING MUTANT P53 FUNCTION” (PMV Pharmaceuticals, Inc., priority 2020, published 2023):
# Read-outs that look alike come from different tables or passages of the source.
# Columns and labels:
# MT373 tumors = format: in vivo; conditions: 75 and 150 mg/kg BID×1 PO
# From the text: Randomization and Study Setup: Implanted animals were monitored for palpable tumors. Eighteen days post implant the animals with palpable tumors had their tumor sizes determined via digital caliper. Mice were selected and randomized into three treatment groups according to tumor size. Average tumor volume (mm^3) and body weight (g) are described in TABLE 17. Treatment began on the eighteenth day post-implant to facilitate twice daily dosing.
# Measurements and Calculation of Tumor Volume: Tumor volume was calculated using the following equation: (longest diameter×shortest diameter^2)/2. Individual tumor volumes and body weight measurements were taken at the final timepoint. The calculation for percent tumor growth inhibition (TGI) is as follows: [1−((Tt−T0/Ct−C0))]×100, where Ct is the mean tumor volume of the vehicle control group at time t, C0 is the mean tumor volume of the vehicle control group at time 0, and T is the mean tumor volume of the treatment group. Tumor regression was determined with the equation [(T0−Tt)/T0]×100 using the same definitions.
# [1] = tested on: p53 target genes in MT373 tumors; test: MT373 syngeneic sarcoma model: p21, MDM2, GDF15 (MIC-1) mRNA RT-qPCR in tumors; format: in vivo, mouse; conditions: for MDM2 mRNA, Fold Change over Vehicle Control / MIC-1 mRNA, Fold Change over Vehicle Control / p21 mRNA, Fold Change over Vehicle Control: MT373 tumors
# Protocol: Purification of RNA: Frozen tumor samples with the required weight were lysed in Buffer RLT with 10 μL/mL of β-mercaptoethanol using a TissueLyser LT. Total RNA was further purified from the lysate using QIAcube with DNase digestion, and RNA concentration was measured with a NanoDrop 2000 Spectrophotometer.
# p21, MDM2, GDF15, and GAPDH Gene Expression: Individual gene expression was analyzed by one-step TaqMan-based real-time RT-qPCR. Purified total RNA was diluted to 2.5 ng/μL in DNase- and RNase-free water, and 10 ng was used for each 20 μL RT-qPCR assay using a LightCycler 96. A QuantiTect Probe RT-PCR Kit was used along with a specific primer/probe set as indicated. LAM-MGB labels were used for genes GAPDH, CDKN1a, MDM2, GDL15, and TRP53. The expression of the reference gene (human GAPDH and/or mouse GAPDH as indicated) in the ratio to the vehicle control was calculated using the ΔCt method with normalization to the total RNA input. The expression of a gene of interest relative to the reference gene was calculated using the ΔCt method, and the expression of a gene of interest relative to the reference gene in the ratio to the vehicle control was calculated using the ΔΔCt method.
# [2] = for Plasma Conc. / Tumor Conc.: MT373 tumor-bearing mice
# BSEP = BSEP (Homo sapiens, UniProt O95342); test: BSEP inhibition: TCA uptake into BSEP-expressing vesicles; format: in vitro ADME; conditions: 10 μM test article
# BSEP, sequence (O95342 whole entry, species assumed): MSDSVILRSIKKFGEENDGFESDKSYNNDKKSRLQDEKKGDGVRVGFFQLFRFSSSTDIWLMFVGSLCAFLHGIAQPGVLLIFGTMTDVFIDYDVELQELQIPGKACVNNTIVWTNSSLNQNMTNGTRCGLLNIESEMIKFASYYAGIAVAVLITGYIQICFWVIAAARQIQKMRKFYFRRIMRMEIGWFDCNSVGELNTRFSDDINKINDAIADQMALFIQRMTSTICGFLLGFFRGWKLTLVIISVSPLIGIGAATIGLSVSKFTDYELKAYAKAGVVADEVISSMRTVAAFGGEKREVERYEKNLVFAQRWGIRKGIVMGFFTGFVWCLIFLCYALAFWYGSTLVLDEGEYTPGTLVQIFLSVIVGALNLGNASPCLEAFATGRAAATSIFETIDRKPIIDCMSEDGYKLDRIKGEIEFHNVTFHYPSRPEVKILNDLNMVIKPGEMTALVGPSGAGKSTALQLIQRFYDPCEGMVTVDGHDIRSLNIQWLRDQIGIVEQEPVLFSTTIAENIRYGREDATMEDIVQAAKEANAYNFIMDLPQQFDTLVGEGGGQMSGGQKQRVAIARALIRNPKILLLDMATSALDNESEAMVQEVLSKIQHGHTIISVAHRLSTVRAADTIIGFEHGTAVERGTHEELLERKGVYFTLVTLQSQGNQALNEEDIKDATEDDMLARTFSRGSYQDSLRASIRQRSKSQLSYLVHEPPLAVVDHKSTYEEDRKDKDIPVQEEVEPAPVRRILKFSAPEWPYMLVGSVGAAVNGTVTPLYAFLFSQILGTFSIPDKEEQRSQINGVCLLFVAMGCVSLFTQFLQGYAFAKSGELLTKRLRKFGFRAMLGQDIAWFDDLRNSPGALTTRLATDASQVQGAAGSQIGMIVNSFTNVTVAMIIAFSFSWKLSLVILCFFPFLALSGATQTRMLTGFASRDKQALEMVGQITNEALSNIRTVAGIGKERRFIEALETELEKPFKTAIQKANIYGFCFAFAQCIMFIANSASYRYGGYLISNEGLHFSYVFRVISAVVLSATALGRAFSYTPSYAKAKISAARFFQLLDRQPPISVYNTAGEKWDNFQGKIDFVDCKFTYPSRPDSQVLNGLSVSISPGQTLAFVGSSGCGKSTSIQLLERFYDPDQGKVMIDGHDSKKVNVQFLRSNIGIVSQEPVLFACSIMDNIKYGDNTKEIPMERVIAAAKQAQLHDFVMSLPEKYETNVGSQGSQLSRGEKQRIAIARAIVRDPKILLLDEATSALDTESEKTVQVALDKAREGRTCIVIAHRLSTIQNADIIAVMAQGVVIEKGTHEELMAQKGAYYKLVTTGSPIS
# Protocol: An assay to measure BSEP-mediated TCA uptake into inside-out BSEP-expressing vesicles was used. […] The reaction was initiated by adding 5 mM ATP (adenosine 5′-triphosphate) as the energy source for BSEP. Negative controls were run in parallel, using 5 mM AMP (adenosine 5′-monophosphate) in place of ATP. The reactions were carried out in 96-well plates incubated in a humidified incubator (37° C. 5% CO2) for 30 minutes. After incubation, the vesicle-associated TCA and free TCA were separated by rapid filtration through a glass-fiber filter plate under vacuum.
# All samples were assayed by liquid chromatography-tandem mass spectrometry (LC-MS/MS) using electrospray ionization. Liquid Chromatography was performed using a Thermo BDS Hypersil C18 30×2.1 mm, 3 μm, with guard column. […] The Aqueous Reservoir (A) was 90% water, 10% buffer. The Organic Reservoir (B) was 90% acetonitrile, 10% buffer. The Flow Rate was 700 μL/minute. The Total Run Time for the liquid chromatography was 2.5 minutes. The Autosampler was 20 μL injection volume. The Autosampler Wash was water/methanol/2-propanol: 1/1/1; with 0.2% formic acid. Mass Spectrometry was performed on the PE SCIEX API 4000 instrument. The interface was Turbo Ionspray. The mode was Multiple reaction monitoring. The method was performed over 2.5 minute duration.
# [3] = 1 μM TCA, BSEP vesicles, 30 minutes
compound,measurement,setting,value
"CCn1c(C#CCNc2ccccc2)cc2cc(CNC3CCN(C)CC3)ccc21 [Compound 1, 1-Anilino-3-{1-ethyl-5-[(1-methyl-4-piperidylamino)methyl]-1H-indol-2-yl}-2-propyne]",tolerability,MT373 tumors,well tolerated
same,"MDM2 mRNA, Fold Change over Vehicle Control","[1]; 75 mg/kg BIDx1 PO, 8 h",6.16 fold
same,"MIC-1 mRNA, Fold Change over Vehicle Control","[1]; 75 mg/kg BIDx1 PO, 8 h",1.74 fold
same,"p21 mRNA, Fold Change over Vehicle Control","[1]; 75 mg/kg BIDx1 PO, 8 h",5.43 fold
same,"MDM2 mRNA, Fold Change over Vehicle Control","[1]; 75 mg/kg BIDx1 PO, 24 h",2.44 fold
same,"MIC-1 mRNA, Fold Change over Vehicle Control","[1]; 75 mg/kg BIDx1 PO, 24 h",1.14 fold
same,"p21 mRNA, Fold Change over Vehicle Control","[1]; 75 mg/kg BIDx1 PO, 24 h",4.04 fold
same,"MDM2 mRNA, Fold Change over Vehicle Control","[1]; 75 mg/kg BIDx1 PO, 48 h",1.12 fold
same,"MIC-1 mRNA, Fold Change over Vehicle Control","[1]; 75 mg/kg BIDx1 PO, 48 h",0.85 fold
same,"p21 mRNA, Fold Change over Vehicle Control","[1]; 75 mg/kg BIDx1 PO, 48 h",1.43 fold
same,"MDM2 mRNA, Fold Change over Vehicle Control","[1]; 75 mg/kg BIDx1 PO, 72 h",1.08 fold
same,"MIC-1 mRNA, Fold Change over Vehicle Control","[1]; 75 mg/kg BIDx1 PO, 72 h",0.65 fold
same,"p21 mRNA, Fold Change over Vehicle Control","[1]; 75 mg/kg BIDx1 PO, 72 h",1.18 fold
same,"MDM2 mRNA, Fold Change over Vehicle Control","[1]; 75 mg/kg BIDx1 PO, 98 h",1.11 fold
same,"MIC-1 mRNA, Fold Change over Vehicle Control","[1]; 75 mg/kg BIDx1 PO, 98 h",1.05 fold
same,"p21 mRNA, Fold Change over Vehicle Control",[1]; 75 mg/kg BIDx1 PO,0.99 fold
same,"MDM2 mRNA, Fold Change over Vehicle Control","[1]; 75 mg/kg BIDx1 PO, […]",0.85 fold
same,"MIC-1 mRNA, Fold Change over Vehicle Control","[1]; 75 mg/kg BIDx1 PO, […]",0.88 fold
same,"p21 mRNA, Fold Change over Vehicle Control","[1]; 75 mg/kg BIDx1 PO, […]",0.98 fold
same,MDM2 mRNA increase,"[1]; 75 mg/kg BID×1, 8 h",6.2 fold
same,p21 mRNA increase,"[1]; 75 mg/kg BID×1, 8 h",5.4 fold
same,MDM2 mRNA increase,"[1]; 75 mg/kg BID×1, 24 h",2.4 fold
same,p21 mRNA increase,"[1]; 75 mg/kg BID×1, 24 h",4.0 fold
same,"MDM2 mRNA, Fold Change over Vehicle Control","[1]; 150 mg/kg BIDx1 PO, 8 h",8.70 fold
same,"MIC-1 mRNA, Fold Change over Vehicle Control","[1]; 150 mg/kg BIDx1 PO, 8 h",3.07 fold
same,"p21 mRNA, Fold Change over Vehicle Control","[1]; 150 mg/kg BIDx1 PO, 8 h",6.73 fold
same,"MDM2 mRNA, Fold Change over Vehicle Control","[1]; 150 mg/kg BIDx1 PO, 24 h",6.88 fold
same,"MIC-1 mRNA, Fold Change over Vehicle Control","[1]; 150 mg/kg BIDx1 PO, 24 h",2.29 fold
same,"p21 mRNA, Fold Change over Vehicle Control","[1]; 150 mg/kg BIDx1 PO, 24 h",9.61 fold
same,"MDM2 mRNA, Fold Change over Vehicle Control","[1]; 150 mg/kg BIDx1 PO, 48 h",1.43 fold
same,"MIC-1 mRNA, Fold Change over Vehicle Control","[1]; 150 mg/kg BIDx1 PO, 48 h",1.14 fold
same,"p21 mRNA, Fold Change over Vehicle Control","[1]; 150 mg/kg BIDx1 PO, 48 h",1.87 fold
same,"MDM2 mRNA, Fold Change over Vehicle Control","[1]; 150 mg/kg BIDx1 PO, 72 h",1.33 fold
same,"MIC-1 mRNA, Fold Change over Vehicle Control","[1]; 150 mg/kg BIDx1 PO, 72 h",0.93 fold
same,"p21 mRNA, Fold Change over Vehicle Control","[1]; 150 mg/kg BIDx1 PO, 72 h",1.33 fold
same,"MDM2 mRNA, Fold Change over Vehicle Control","[1]; 150 mg/kg BIDx1 PO, 98 h",1.12 fold
same,"MIC-1 mRNA, Fold Change over Vehicle Control","[1]; 150 mg/kg BIDx1 PO, 98 h",0.53 fold
same,"p21 mRNA, Fold Change over Vehicle Control",[1]; 150 mg/kg BIDx1 PO,1.01 fold
same,"MDM2 mRNA, Fold Change over Vehicle Control","[1]; 150 mg/kg BIDx1 PO, […]",1.16 fold
same,"MIC-1 mRNA, Fold Change over Vehicle Control","[1]; 150 mg/kg BIDx1 PO, […]",1.00 fold
same,"p21 mRNA, Fold Change over Vehicle Control","[1]; 150 mg/kg BIDx1 PO, […]",0.85 fold
same,MDM2 mRNA increase,"[1]; 150 mg/kg BID×1, 8 h",8.7 fold
same,MIC-1 mRNA increase,"[1]; 150 mg/kg BID×1, 8 h",3.07 fold
same,p21 mRNA increase,"[1]; 150 mg/kg BID×1, 8 h",6.7 fold
same,MDM2 mRNA increase,"[1]; 150 mg/kg BID×1, 24 h",6.9 fold
same,MIC-1 mRNA increase,"[1]; 150 mg/kg BID×1, 24 h",2.29 fold
same,p21 mRNA increase,"[1]; 150 mg/kg BID×1, 24 h",9.6 fold
same,Plasma Conc.,"[2]; 75 mg/kg BIDx1 PO, 8 h",8375 ng/mL
same,Tumor Conc.,"[2]; 75 mg/kg BIDx1 PO, 8 h",30853 ng/g
same,Plasma Conc.,"[2]; 75 mg/kg BIDx1 PO, 24 h",1843 ng/mL
same,Tumor Conc.,"[2]; 75 mg/kg BIDx1 PO, 24 h",12035 ng/g
same,Plasma Conc.,"[2]; 75 mg/kg BIDx1 PO, 48 h",40 ng/mL
same,Tumor Conc.,"[2]; 75 mg/kg BIDx1 PO, 48 h",318 ng/g
same,Plasma Conc.,"[2]; 75 mg/kg BIDx1 PO, 72 h",0 ng/mL
same,Tumor Conc.,"[2]; 75 mg/kg BIDx1 PO, 72 h",97 ng/g
same,Plasma Conc.,"[2]; 75 mg/kg BIDx1 PO, 98 h",0 ng/mL
same,Tumor Conc.,"[2]; 75 mg/kg BIDx1 PO, 98 h",0 ng/g
same,plasma concentration,"[2]; 75 mg/kg BID×1 PO, 8 h (Cmax)",8375 ng/mL
same,plasma concentration,"[2]; 75 mg/kg BID×1 PO, 24 h",1843 ng/mL
same,Plasma Conc.,"[2]; 150 mg/kg BIDx1 PO, 8 h",11435 ng/mL
same,Tumor Conc.,"[2]; 150 mg/kg BIDx1 PO, 8 h",57645 ng/g
same,Plasma Conc.,"[2]; 150 mg/kg BIDx1 PO, 24 h",5986 ng/mL
same,Tumor Conc.,"[2]; 150 mg/kg BIDx1 PO, 24 h",67778 ng/g
same,Plasma Conc.,"[2]; 150 mg/kg BIDx1 PO, 48 h",268 ng/mL
same,Tumor Conc.,"[2]; 150 mg/kg BIDx1 PO, 48 h",2436 ng/g
same,Plasma Conc.,"[2]; 150 mg/kg BIDx1 PO, 72 h",7 ng/mL
same,Tumor Conc.,"[2]; 150 mg/kg BIDx1 PO, 72 h",59 ng/g
same,Plasma Conc.,"[2]; 150 mg/kg BIDx1 PO, 98 h",3 ng/mL
same,Tumor Conc.,"[2]; 150 mg/kg BIDx1 PO, 98 h",23 ng/g
same,plasma concentration,"[2]; 150 mg/kg BID×1 PO, 8 h (Cmax)",11435 ng/mL
same,plasma concentration,"[2]; 150 mg/kg BID×1 PO, 24 h",5986 ng/mL
same,BSEP Inhibition Potential Classification,BSEP,Negative (Percent inhibition <50%: Negative)
same,"TCA Concentration, Cofactor AMP, AVG","BSEP; 1 μM TCA, AMP negative control",1.97 nM
same,"TCA Concentration, Cofactor AMP, R1","BSEP; 1 μM TCA, AMP negative control",1.50 nM
same,"TCA Concentration, Cofactor ATP, AVG",BSEP; [3],85.5 nM
same,"TCA Concentration, Cofactor ATP, R1",BSEP; [3],87. nM
same,BSEP Inhibition Classification,BSEP; TCA 1 μM,negative
same,Percent Inhibition,BSEP; negative values reported as 0,0%
